“Also recorded” adds a separate entry of the source. Like-named read-outs stand apart in the source and are kept apart here.
Experiments:
[1] = cited from earlier work
[2] = test system: human smooth muscle cells; assay: Inhibition of human vascular cell proliferation with cladribine, smooth muscle cells, PDGF-stimulated cell count; type: cell-based; conditions: from IC50 values 23 and 40 nanomolar
Description: After twenty-four hours, the growth medium was changed and fresh medium containing 10 ng/ml platelet-derived growth factor AB (PDGF AB; LIFE Technologies), as well as various concentrations of cladribine (0.001-10,000 nM) were added with triplicate wells. Medium was replaced with fresh cladribine-containing medium after three days. On day six, cells were detached by trypsinization to yield a cell suspension, lightly centrifuged to pellet and then counted manually using a Neubauer hemocytometer system. Cell viability was assessed by trypan blue exclusion.

[3] = test system: non-synchronized cultured human coronary artery smooth muscle cells; assay: Anti-proliferative activity in non-synchronized cultured human coronary artery smooth muscle cells stimulated with two percent fetal bovine serum; type: cell-based
Excerpt: The multiple curves represent various concentrations of mycophenolic acid ranging from zero to one thousand nanomolar concentrations.
FIG. 58 illustrates, in graphical format, the anti-proliferative activity of cladribine in non-synchronized cultured human coronary artery smooth muscle cells stimulated with two percent fetal bovine serum.
The multiple curves represent various concentrations of cladribine ranging from zero to nine hundred nanomolar concentrations.

[4] = In vitro release kinetics of cladribine from PVDF/HFP coatings in twenty-five percent ethanol/water; type: in vitro ADME; conditions: room temperature
Excerpt: FIG. […] The basecoat comprises a ratio of PVDF/ HFP (85/15) and cladribine. Cladribine comprises thirty percent of the basecoat. The topcoat also comprises an 85/15 ratio of PVDF and HFP, but no cladribine. Curve 5902 represents the release kinetics of cladribine wherein the basecoat weight is six hundred micrograms (one hundred eighty micrograms cladribine). Curve 5904 represents the release kinetics of cladribine wherein the basecoat weight is one thousand eight hundred micrograms (five hundred forty micrograms cladribine). Curve 5906 represents the release kinetics of cladribine wherein the basecoat weight is six hundred micrograms (one hunded eighty micrograms cladribine) and the topcoat weight is one hundred micrograms. Curve 5908 represents the release kinetics of cladribine wherein the basecoat weight is one thousand eight hundred micrograms (five hundred forty micrograms cladribine) and the topcoat is three hundred micrograms. Curve 5910 represents the release kinetic of cladribine wherein the basecoat weight is six hundred micrograms (one hundred eighty micrograms cladribine) and the topcoat is three hundred micrograms.
FIG. 60 is a graphical representation of the in vitro release kinetics of cladribine from a sterile PVDF/HFP coating incorporated in a twenty-five percent ethanol/water release medium at room temperature. […]

[5] = In vivo release kinetics of cladribine and rapamycin from coated Bx Velocity stents in Yorkshire pigs; set-up: species or system Yorkshire pig
Excerpt: FIG. 61 is a graphical representation of the in vivo release kinetics of cladribine from a polymeric coating on Bx Velocity® stents, available from Cordis Corporation, implanted in a Yorkshire pig. The basecoat comprises an 85/15 ratio of PVDF and HFP and cladribine for a total combined weight of one thousand eight hundred micrograms (cladribine comprising thirty percent of the total weight). […]
(§1) The basecoat is applied to Bx Velocity® stents and implanted into Yorkshire pigs.
as §1

[6] = In vivo release kinetics of rapamycin and mycophenolic acid from polymer coatings, porcine pharmacokinetics studies
Excerpt: The topcoat is two hundred micro grams.

[7] = In vitro release kinetics of rapamycin from a combination of rapamycin and mycophenolic acid; type: in vitro ADME; conditions: FIG. 55
Excerpt: The in vitro tests were run twice for each coating scenario.

cell viability = assay: Separate cell viability assay of topotecan; type: cell-based; conditions: concentrations up to one micromolar
Excerpt: (§2) The multiple curves represent various concentrations of topotecan ranging from zero to three hundred nanomolar concentrations.

[8] = test system: synchronized cultured human coronary artery smooth muscle cells; assay: Anti-proliferative activity in synchronized cultured human coronary artery smooth muscle cells stimulated with two percent fetal bovine serum; type: cell-based; conditions: topotecan zero to three hundred nanomolar, FIG. 64
Excerpt: as §2

[9] = test system: human coronary artery smooth muscle cell; conditions: Brehm et al., 2000; cited from earlier work
[10] = test system: human coronary artery smooth muscle cell; assay: Inhibition of coronary artery smooth muscle cell proliferation by trichostatin A, in vitro cell culture; type: cell-based
Excerpt: FIG. 51 is a graph of the inhibition of coronary artery smooth muscle cells by trichostatin A in a cell culture study.

tumor cell lines = tumor cell lines (Woo et al., 2002); cited from earlier work

Structure (SMILES): CC[C@@]1(O)C(=O)OCc2c1cc1n(c2=O)Cc2cc3ccccc3nc2-1 [Camptothecin, camptothecin]
- lipid solubility [1]: high lipid solubility
- water solubility [1]: poor water solubility

Structure (SMILES): Nc1nc(Cl)nc2c1ncn2[C@H]1C[C@H](O)[C@@H](CO)O1 [Cladribine, 2-chlorodeoxyadenosine]
- potency as inhibitor of smooth muscle cells relative to endothelial cells [2]: approximately twice as potent
- inhibition of human coronary artery smooth muscle cell proliferation ([3]; cladribine alone, FIG. 58): completely inhibits
- effect of added cladribine on the anti-proliferative rapamycin dose response curve ([3]; cladribine zero to nine hundred nanomolar, FIG. 57): potentiate the anti-proliferative activity of rapamycin; also recorded: increases the percent inhibition of rapamycin alone
- in vitro release rate of cladribine, effect of topcoat weight ([4]; non-sterile PVDF/HFP (85/15) coatings, FIG. 59): an increase in topcoat weight or thickness led to a decrease in the release rate of cladribine
- in vitro release rate of cladribine, effect of topcoat ([4]; sterile PVDF/HFP coating, FIG. 60): a three-times topcoat led to a drastic decrease of release rate
- in vivo elution of cladribine compared with rapamycin ([5]; EVA/BMA basecoat, 200 μg BMA topcoat, Yorkshire pigs, FIG. 63): elutes more rapidly than rapamycin
- in vivo elution of cladribine over time ([5]; PVDF/HFP 85/15 basecoat 1800 μg (thirty percent cladribine), 300 μg topcoat, Yorkshire pig, FIG. 61): after the first day, the elution of cladribine levels off significantly

Structure (SMILES): CO[C@H]1C[C@@H]2CC[C@@H](C)[C@@](O)(O2)C(=O)C(=O)N2CCCC[C@H]2C(=O)O[C@H]([C@H](C)C[C@@H]2CC[C@@H](O)[C@H](OC)C2)CC(=O)[C@H](C)/C=C(\C)[C@@H](O)[C@@H](OC)C(=O)[C@H](C)C[C@H](C)/C=C/C=C/C=C/1C [Rapamycin, rapamycin]
- in vivo release of rapamycin from EVA/BMA basecoat, effect of BMA topcoat ([6]; 600 μg basecoat with 180 μg rapamycin and 180 μg mycophenolic acid, no, 100 or 200 μg BMA topcoat, FIG. 53): BMA topcoat does slow the release of rapamycin from the basecoat
- in vivo release rate of rapamycin compared with mycophenolic acid ([6]; PVDF basecoat 600 μg with PVDF topcoat 200 μg, FIG. 56): slower release rate than that of mycophenolic acid
- in vitro release of rapamycin from EVA/BMA basecoat, effect of BMA topcoat ([7]; 600 μg basecoat with 180 μg rapamycin and 180 μg mycophenolic acid): BMA topcoat does slow the release of rapamycin from the basecoat in in vitro testing
- in vitro release rates of rapamycin compared with in vivo ([7]; EVA/BMA basecoat): release rates are faster than in the in vivo testing
- in vivo release rates of rapamycin from rapamycin/cladribine EVA/BMA basecoats ([5]; three rapamycin/cladribine loadings, 200 μg BMA topcoat, Yorkshire pigs, FIG. 62): substantially similar to one another

Structure (SMILES): CC[C@@]1(O)C(=O)OCc2c1cc1n(c2=O)Cc2cc3c(CN(C)C)c(O)ccc3nc2-1 [Topotecan, topotecan]
- cytotoxicity in cell viability assay (cell viability): non-cytotoxic
- effect of added topotecan on the anti-proliferative rapamycin dose response curve [8]: potentiate the anti-proliferative activity of rapamycin; also recorded: increases the percent inhibition of rapamycin alone
- inhibition of human coronary artery smooth muscle cell proliferation [9]: inhibit human coronary artery smooth muscle cell proliferation

Structure (SMILES): COc1c(C)c2c(c(O)c1C/C=C(\C)CCC(=O)O)C(=O)OC2 [mycophenolic acid]
- in vivo release of mycophenolic acid from EVA/BMA basecoat, effect of BMA topcoat ([6]; 600 μg basecoat with 180 μg rapamycin and 180 μg mycophenolic acid, no, 100 or 200 μg BMA topcoat, FIG. 54): BMA topcoat does slow the release of mycophenolic acid from the basecoat
- in vivo elution of mycophenolic acid compared with rapamycin ([6]; EVA/BMA basecoat, FIG. 53 and 54): elutes more completely over a shorter duration than the rapamycin
- effect of added mycophenolic acid on the anti-proliferative rapamycin dose response curve ([3]; mycophenolic acid zero to one thousand nanomolar, FIG. 52): potentiates the anti-proliferative activity of rapamycin

Structure (SMILES): CC(/C=C/C(=O)NO)=C\[C@@H](C)C(=O)c1ccc(N(C)C)cc1 [trichostatin A]
- inhibition of human coronary artery smooth muscle cell proliferation ([10]; FIG. 51): completely inhibit
- IC50 ([10]; read-out: anti-proliferative IC50): ~6 nM
- anti-proliferative IC50 (tumor cell lines): low nM range

Source: patent US8828416B2 (Cordis Corporation, priority 2004, dated 2014)
